Data on five molecules can be found in PMC6315490, “Angucycline Glycosides from an Intertidal Sediments Strain Streptomyces sp. and Their Cytotoxic Activity against Hepatoma Carcinoma Cells” (Marine Drugs, 2018).

Common to all, as to assay type: cell-based
Data set [1] deals with hepatoma carcinoma plc-prf-5 cells. Kind of data set: MTT cytotoxicity assay, plc-prf-5. The settings on record: Homo sapiens, MTT method. The protocol:
(§1) Though, the distinct in vivo toxicity restricted the further development of these compounds to be clinical drugs. Recently, an atypical angucycline, lomaiviticin A, was reported to be under preclinical evaluation for antitumor treatment due to its prominent cytotoxicity and effects of inducing double-strand breaks in DNA [14, 23]. In present work, 1–4 were assayed for their cytotoxic activity against normal liver cell LO2, hepatoma carcinoma HepG-2, SMMC-7721 and plc-prf-5 cell lines by 3-(4,5-dimethylthiazol-2-yl)-2,5-diphenyltetrazolium bromide (MTT) method (Table 2).
(§2) The cytotoxicity evaluations of 1–4 against normal liver cell and hepatoma carcinoma cells were carried out using the 3-(4,5-dimethylthiazole-2-yl)-2,5-diphenyltetrazolium bromide (MTT) assay. Doxorubicin was used as positive control drug and deionized H2O with the same DMSO concentration was used as parallel control. DAPI staining test was employed to qualitatively observe apoptosis, and the apoptotic ratio was measured by flow cytometric analysis (Becton Dickinson FACScan, San Jose, CA, USA). These tests were conducted using the methods as previously described.
On the technique in general: Tetrazolium dyes change colour on reduction, which living cells bring about.

Data set [2] relates to hepatoma carcinoma SMMC-7721 cells. Kind of data set: MTT cytotoxicity assay, SMMC-7721. The settings on record: Homo sapiens, MTT method. The protocol:
as §1, §2

The nature of data set [3]: MTT cytotoxicity assay, normal liver cell LO2. The settings on record: human; MTT method; LO2 normal liver cells. Here is the method: as §1, §2
Data set [4] relates to hepatoma carcinoma HepG-2 cells. Kind of data set: MTT cytotoxicity assay, HepG-2. The settings on record: Homo sapiens, HepG2, MTT method. Here is the method:
as §1, §2

In data set [5] the test system is SMMC-7721 cells. Kind of data set: DAPI staining test for apoptosis. As to conditions: 0.025 to 0.100 μM for 24 h. Here is the method: as §1
(§3) Figure 5 (a) Fluorescence micrographs of untreated and saquayamycin B-treated SMMC-7721 cells (24 h) stained with DAPI, Magnification: 100×; (b) Quantification of saquayamycin B-induced apoptosis in SMMC-7721 cell using flow cytometric analysis. ** p < 0.01 versus saquayamycin B 0 μM group. […]
(§4) The cytotoxicity evaluations of 1–4 against normal liver cell and hepatoma carcinoma cells were carried out using the 3-(4,5-dimethylthiazole-2-yl)-2,5-diphenyltetrazolium bromide (MTT) assay. […] DAPI staining test was employed to qualitatively observe apoptosis, and the apoptotic ratio was measured by flow cytometric analysis (Becton Dickinson FACScan, San Jose, CA, USA). […]

Data set [6] has as its system SMMC-7721 cells. Kind of data set: Flow cytometric analysis of apoptosis. As to conditions: Figure 5b. The protocol: as §1, §3, §4
(Flow cytometry measures light scatter and fluorescence of single cells or particles in a stream.)

Entries after “also recorded” stand apart in the source; their conditions may differ.

On to `Cc1cc(O)c2c3c(cc(O)c2c1)C(=O)c1c(ccc(C2CC4OC5CC(=O)C(C)OC5OC4C(C)O2)c1O)C3=O` (stereo not shown) [Compound 1, landomycin N], for which the IC50 in data set [1], in data set [2], in data set [3] and in data set [4] was over 40000 nM each time.

Consider `CC1OC(OC2CCC(OC3(C)CC(=O)C4(O)C5=C(C=CC4(O)C3)C(=O)c3c(ccc(C4CC6OC7CC(=O)C(C)OC7OC6C(C)O4)c3O)C5=O)OC2C)C=CC1=O` (stereo not shown) [Compound 4, saquayamycin B], for which the “Apoptosis by morphological characteristics in DAPI staining” value in the data set on SMMC-7721 cells [5] is “chromatin dispersion and formation of apoptotic body; also recorded: induced apoptosis in SMMC-7721 cells”. For the same molecule, the “Apoptotic ratio of SMMC-7721 cells (flow cytometry), concentration dependence” value in the data set with SMMC-7721 cells [6] is recorded as “dependent on the concentrations of saquayamycin B”. Further, the IC50 in data set [1] is 244 ± 1 nM; in data set [2], 33 ± 5 nM; in data set [3], 343 ± 81 nM; in data set [4], 135 ± 56 nM.

With `CC1OC(OC2CCC(OC(C)(CC(=O)O)Cc3ccc4c(c3O)C(=O)c3ccc(C5CC6OC7CC(=O)C(C)OC7OC6C(C)O5)c(O)c3C4=O)OC2C)C=CC1=O` (stereo not shown) [Compound 3, vineomycin D], the IC50 in data set [1], in data set [2], in data set [3] and in data set [4] was over 40000 nM throughout.

Take `Cc1cc(O)c2cc3c(c(O)c2c1)C(=O)c1ccc(C2CC4OC5CC(=O)C(C)OC5OC4C(C)O2)c(O)c1C3=O` (stereo not shown) [Compound 2, galtamycin C]: the IC50 in data set [1], in data set [2], in data set [3] and in data set [4] was over 40000 nM throughout.

Take `COc1cccc2c1C(=O)c1c(O)c3c(c(O)c1C2=O)C[C@@](O)(C(=O)CO)C[C@@H]3O[C@H]1C[C@H](N)[C@H](O)[C@H](C)O1` [Doxorubicin, reference compound]: the concentration for half-maximal inhibition (IC50) in data set [1] came to 1030 ± 990 nM; in data set [2], 706 ± 4 nM; in data set [3] it was 2260 ± 160 nM; in data set [4], 919 ± 599 nM.

Broadly, the IC50 is the concentration that inhibits the measured activity by half. Read a high IC50 as a need for much substance.
